Measured values from patent US10844062B2, “Pyridine derivative inhibiting RAF kinase and vascular endothelial growth factor receptor, method for preparing same, pharmaceutical composition containing same, and use thereof” (SAMJIN PHARMACEUTICAL CO., LTD., priority 2016, dated 2020).
pIC50: −log10 of the molar value. Read-outs that look alike come from different tables or passages of the source.

Tests used:
[1] = target: C-Raf (Homo sapiens (Human), UniProt P04049); test: Raf kinase inhibitory activity (Raf/MEK1/MAPK2 cascade, MBP phosphorylation, 32P); format: biochemical
Method: (§1) In order to examine the inhibitory activities of the compounds of the present invention against Raf kinases (B-Raf, C-Raf, B-Raf^V600E), the following experiment was performed.
(§2) (1) Consecutive Signal Transduction Reaction
(§3) To a centrifugation tube, 20 μl of a dilution solvent (20 mM MOPS, pH 7.2, 25 mM (3-glycerol phosphate, 5 mM EGTA, 1 mM sodium orthovanadate, 1 mM dithiothreitol) and 20 μl of a Mg/ATP mixture (500 μM ATP and 75 mM magnesium chloride) were added. Then, each of the derivative compounds of formula 1 was added. As a control, 1 ng of activated raf, 0.4 ng of inactivated MEK1 and 1 μg of inactivated MAPK2 were added without adding Example compounds. The solutions in the tube were concentrated at the bottom of the tube by centrifugation, and then allowed to react at 30° C. for 30 minutes, and 4 μl of the mixture solution was taken and used in the next experimental step.
(§4) (2) Phosphorylation of Substrate Protein MBP by MAPK2
(§5) To 4 μl of the mixture solution taken in (1), 10 μl of a dilution solvent, 20 μg of MBP as a substrate, and 10 μl of diluted [γ-32P]ATP (1 μCi/μL) were added. The solutions in the tube were concentrated at the bottom of the tube by centrifugation, and then allowed to react at 30° C. for 30 minutes. 25 μl of the reaction solution was carefully placed on the center of 2 cm×2 cm P81 filter paper for 30 seconds. Next, the filter paper was washed three times with 0.75% phosphoric acid solution for 10 minutes each time and washed once with acetone for 5 minutes. Next, the filter paper was transferred into a scintillation vial, and 5 ml of a scintillation cocktail was added thereto. Raf activity inhibition rate (IC50) was measured by reading the radioactivity with a scintillation counter in comparison with the control.

[2] = target: B-Raf (Homo sapiens (Human), UniProt P15056); test: as above; format: biochemical
Method: as §1, §2, §3, §4, §5

[3] = target: B-Raf V600E (Homo sapiens (Human), UniProt P15056, V600E); test: as above; format: biochemical
Method: as §1, §2, §3, §4, §5

[4] = tested on: HUVEC (VEGF); test: MTT assay; format: cell-based; details: Homo sapiens, 72 h, Table 5, 3 days incubation
Summary of the method: (§6)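 Cells were seeded at line-dependent density and stabilised overnight at 37 °C, then exposed to compounds for 3 days at 37 °C. MTT was then added for 2 h and the formazan dissolved in DMSO.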

[5] = tested on: SW620 KRAS G12V (colon); test: MTT assay; format: cell-based; details: Homo sapiens, SW-620, 72 h; Table 5; 3 days incubation; read-out: MTT assay IC50 KRAS mutant (Colon) SW620 KRAS G12V
Summary of the method: as §6

[6] = tested on: LS513 KRAS G12V (colon); test: MTT assay; format: cell-based; details: Homo sapiens, LS-513, 72 h, 3 days incubation, read-out: MTT assay IC50 KRAS mutant (Colon) LS513 KRAS G12V
Summary of the method: as §6

[7] = tested on: HCT-116 KRAS G13D (colon); test: MTT assay; format: cell-based; details: Homo sapiens, HCT-116, 72 h; Table 5; 3 days incubation; read-out: MTT assay IC50 KRAS mutant (Colon) HCT-116 KRAS G13D
Summary of the method: as §6

[8] = tested on: A-375P BRAF V600E (melanoma); test: MTT assay; format: cell-based; details: A375P, 72 h; Table 5; 3 days incubation
Summary of the method: as §6

[9] = tested on: WiDR BRAF V600E (colon); test: MTT assay; format: cell-based; details: Homo sapiens, 72 h, Table 5, 3 days incubation, read-out: MTT assay IC50 BRAF mutant (Colon) WiDR BRAF V600E
Summary of the method: as §6

[10] = tested on: SK-MEL2 NRAS Q61R (melanoma); test: MTT assay; format: cell-based; details: Homo sapiens, SK-MEL-2, 72 h; Table 5; 3 days incubation
Summary of the method: as §6

[11] = tested on: LS513 human colorectal cancer cell line xenograft; test: Antitumor effect on human colorectal cancer LS513 cell line xenograft; format: in vivo, Balb/c nu/nu nude mice; details: oral, twice a day, 60 mg/kg or 30 mg/kg (dose not specified per compound), 14 days
Source text: In this experiment, 5 to 6-week-old female Balb/c nu/nu nude mice (weighed 18 to 20 g) were used. The mice were provided from Nara Biotech Co., Ltd. During the experiment, all the animals were housed on a mouse constant temperature/constant humidity shelf (Individually Ventilated Cages System, LAB & BIO).
Each cage (37.2 cm length×19.2 cm width×13.1 cm height) was sterilized with a sterilizer, and eight mice were received in each cage. The mice were maintained in a hygienic environment controlled to a temperature of 20 to 24° C. and a humidity of 40 to 70% with a 12-hr light/12-hr dark cycle. The mice were allowed to access sterilized feed and drinking water ad libitum. The care and treatment of these animals were carried out according to the Laboratory Animal Care Guidelines of Samjin Pharmaceutical Co., Ltd.
The mice were acclimated to the housing facility for 1 week, and then 0.1 mL of a cell suspension containing 1×10^7 cells was injected subcutaneously into the right flank of each mouse. After cell transplantation, the volume of the formed tumor was measured, and mice with formed tumors having a volume of 150 mm^3 or more were randomly divided into groups (each consisting of 7 to 8 animals) for treatment with the test compounds and a control. […] Administration of the drugs was continued for 14 days. […] At 3-day intervals from the starting day of the administration, the long axis and short axis of the tumor were measured with digital vernier calipers, and the tumor volume was calculated using the following equation and recorded: Tumor volume (TV)=Long axis×short axis^2/2.
Tumor growth inhibition for absolute tumor volume was calculated using the following equation. In the following equation, V0 is the tumor volume on the first day of drug administration (day 0), and Vt is the tumor volume after last drug administration.

[12] = tested on: LS513 human colorectal cancer cell line xenograft; test: as above; format: in vivo, Balb/c nu/nu nude mice; details: oral

C-Raf, sequence (P04049 whole entry): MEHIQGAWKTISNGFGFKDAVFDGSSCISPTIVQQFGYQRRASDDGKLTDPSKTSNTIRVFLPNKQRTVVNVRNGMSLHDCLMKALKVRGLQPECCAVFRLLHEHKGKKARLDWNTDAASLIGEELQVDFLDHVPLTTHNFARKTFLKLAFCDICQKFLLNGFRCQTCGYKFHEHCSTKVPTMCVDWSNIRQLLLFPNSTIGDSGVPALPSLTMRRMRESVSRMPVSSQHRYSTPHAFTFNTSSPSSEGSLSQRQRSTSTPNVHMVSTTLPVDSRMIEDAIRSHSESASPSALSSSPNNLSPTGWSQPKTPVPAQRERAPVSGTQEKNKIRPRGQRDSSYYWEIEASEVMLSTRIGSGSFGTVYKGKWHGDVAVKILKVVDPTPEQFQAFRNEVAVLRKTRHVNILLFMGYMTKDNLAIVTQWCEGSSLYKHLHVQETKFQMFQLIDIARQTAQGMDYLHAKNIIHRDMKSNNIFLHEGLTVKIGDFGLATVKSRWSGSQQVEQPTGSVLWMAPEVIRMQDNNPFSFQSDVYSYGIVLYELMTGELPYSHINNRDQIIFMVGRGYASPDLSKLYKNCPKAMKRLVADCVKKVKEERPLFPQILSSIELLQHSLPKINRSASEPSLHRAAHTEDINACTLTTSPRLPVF
B-Raf, sequence (P15056 whole entry): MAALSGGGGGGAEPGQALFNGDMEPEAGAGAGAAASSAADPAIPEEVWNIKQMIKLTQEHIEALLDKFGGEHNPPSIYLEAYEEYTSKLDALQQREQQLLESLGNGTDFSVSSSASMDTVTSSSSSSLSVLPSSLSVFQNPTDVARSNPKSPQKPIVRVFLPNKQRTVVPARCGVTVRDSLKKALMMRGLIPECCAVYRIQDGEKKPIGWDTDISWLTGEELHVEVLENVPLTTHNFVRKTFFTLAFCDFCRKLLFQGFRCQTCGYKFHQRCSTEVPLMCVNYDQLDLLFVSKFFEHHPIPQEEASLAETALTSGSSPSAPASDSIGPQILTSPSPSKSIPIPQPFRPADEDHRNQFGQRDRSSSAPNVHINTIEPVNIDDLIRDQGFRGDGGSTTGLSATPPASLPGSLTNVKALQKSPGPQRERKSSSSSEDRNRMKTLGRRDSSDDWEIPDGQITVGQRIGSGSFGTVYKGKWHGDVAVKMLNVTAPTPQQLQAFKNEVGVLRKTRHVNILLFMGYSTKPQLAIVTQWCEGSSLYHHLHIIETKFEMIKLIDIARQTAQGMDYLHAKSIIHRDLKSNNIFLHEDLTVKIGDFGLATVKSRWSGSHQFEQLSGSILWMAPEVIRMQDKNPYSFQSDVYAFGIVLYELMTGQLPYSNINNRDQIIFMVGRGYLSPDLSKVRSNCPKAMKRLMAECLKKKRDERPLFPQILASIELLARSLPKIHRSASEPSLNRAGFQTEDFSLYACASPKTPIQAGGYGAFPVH
B-Raf V600E, sequence (P15056 whole entry V600E): as the sequence (P15056 whole entry) above, with V600E counted along it

Row | SMILES | pIC50 [1] | pIC50 [2] | pIC50 [3] | pIC50 ([6]; Table 4) | pIC50 ([6]; Table 5) | pIC50 [9] | other results
1 | O=C(Nc1ccc(F)c(Nc2ncccc2-c2ncnc3[nH]cnc23)c1F)c1cccc(C(F)(F)F)c1 [Example 1, N-(3-(3-(9H-purin-6-yl)pyridin-2-ylamino)-2,4-difluorophenyl)-3-(trifluoromethyl)benzamide] | 7.64 | 7.47 | 7.80 | 5.93 | 6.56 | 6.94 | pIC50 [4]: 7.66; pIC50 [5]: 6.07; pIC50 [7]: 7.00; pIC50 [8]: 7.02
2 | CC(C)(C#N)c1cccc(C(=O)Nc2ccc(F)c(Nc3ncccc3-c3ncnc4[nH]cnc34)c2F)c1 [Example 9, N-(3-(3-(9H-purin-6-yl)pyridin-2-ylamino)-2,4-difluorophenyl)-3-(2-cyanopropan-2-yl)benzamide] | 9.22 | 8.70 | 9.70 | 6.18 | 6.86 | 7.24 | pIC50 [4]: 7.36; pIC50 [5]: 6.19; pIC50 [7]: 7.12; pIC50 [10]: 6.97; pIC50 [8]: 7.40
3 | CC(C)(C#N)c1cc(F)cc(C(=O)Nc2cc(Nc3ncccc3-c3ncnc4[nH]cnc34)ccc2F)c1 [Example 33, N-(5-(3-(9H-Purin-6-Yl)Pyridin-2-Ylamino)-2-Fluorophenyl)-3-(2-Cyanopropan-2-Yl)-5-Fluorobenzamide] | 7.62 | 7.03 | 7.48 | 6.70 |  |  | antitumor effect (tumor growth inhibition) compared to the vehicle control [11]: 96.0%
4 | Cc1cn(-c2cc(NC(=O)Nc3ccc(F)c(Nc4ncccc4-c4ncnc5[nH]cnc45)c3F)cc(C(F)(F)F)c2)cn1 [Example 59, 1-(3-(3-(9H-Purin-6-Yl)Pyridin-2-Ylamino)-2,4-Difluorophenyl)-3-(3-(4-Methyl-1H-Imidazol-1-Yl)-5-(Trifluoromethyl)Phenyl)Urea] |  |  |  | 5.67 |  |  | antitumor effect (tumor growth inhibition) compared to the vehicle control [11]: 83.51%
5 | CCN1CCN(Cc2ccc(NC(=O)Nc3ccc(F)c(Nc4ncccc4-c4ncnc5[nH]cnc45)c3F)cc2C(F)(F)F)CC1 [Example 60, 1-(3-(3-(9H-Purin-6-Yl)Pyridin-2-Ylamino)-2,4-Difluorophenyl)-3-(4-((4-Ethylpiperazin-1-Yl)Methyl)-3-(Trifluoromethyl)Phenyl)Urea] |  |  |  | < 5.00 |  |  | antitumor effect (tumor growth inhibition) compared to the vehicle control [11]: 69.06%
6 | COc1cc(C(=O)Nc2cc(Nc3ncccc3-c3ncnc4[nH]cnc34)ccc2F)cc(C(F)(F)F)c1 [Example 63, N-2-Fluoro-5-[3-(9H-Purin-6-Yl)Pyridin-2-Ylamino)Phenyl-3-Methoxy-5-(Trifluoromethyl)Benzamide] |  |  |  | 6.16 |  |  | antitumor effect (tumor growth inhibition) compared to the vehicle control [11]: 57.9%
7 | O=C(Nc1cc(Nc2ncccc2-c2ncnc3[nH]cnc23)ccc1F)c1cc(C(F)(F)F)cc(C(F)(F)F)c1 [Example 65, N-2-Fluoro-5-[3-(9H-Purin-6-Yl)Pyridin-2-Ylamino)Phenyl-3,5-Bis(Trifluoromethyl)Benzamide] | 6.59 | 6.48 | 6.73 | 7.00 | 6.49 | 6.61 | antitumor effect (tumor growth inhibition) ([12]; 50 mg/kg, once a day, 13 days): 95.42%; pIC50 [4]: 6.07; pIC50 [5]: 6.15; pIC50 [7]: 6.68
8 | O=C(Nc1cc(Nc2ncccc2-c2ncnc3[nH]cnc23)ccc1F)c1cc(Cl)cc(C(F)(F)F)c1 [Example 135, N-5-[(3-(9H-purin-6-yl)pyridin-2-yl)amino]-2-fluorophenyl-3-chloro-5-(trifluoromethyl)benzamide] | 7.47 | 6.79 | 7.07 | 7.10 | 7.06 | 7.17 | antitumor effect (tumor growth inhibition) ([12]; 12.5 mg/kg, 21 days): 52.36%; antitumor effect (tumor growth inhibition) ([12]; 25 mg/kg, 21 days): 74.73%; antitumor effect (tumor growth inhibition) ([12]; 50 mg/kg, 21 days): 86.85%; antitumor effect (tumor growth inhibition) ([12]; 50 mg/kg, once a day, 13 days): 92.66%; pIC50 [4]: 6.13; pIC50 [5]: 6.50; pIC50 [7]: 7.13
9 | Cc1cc(C(=O)Nc2cc(Nc3ncccc3-c3ncnc4[nH]cnc34)ccc2F)cc(C(F)(F)F)c1 [Example 139, N-5-[(3-(9H-purin-6-yl)pyridin-2-yl)amino]-2-fluorophenyl-3-methyl-5-(trifluoromethyl)benzamide] |  |  |  | 7.00 | 7.02 | 6.94 | antitumor effect (tumor growth inhibition) ([12]; 50 mg/kg, once a day, 13 days): 91.04%
10 | CC(C)(C#N)c1cc(C(=O)Nc2cc(Nc3ncccc3-c3ncnc4[nH]cnc34)ccc2F)cc(C(F)(F)F)c1 [Example 154, N-5-[(3-(9H-purin-6-yl)pyridin-2-yl)amino]-2-fluorophenyl-3-(2-cyanopropan-2-yl)-5-(trifluoromethyl)benzamide] |  |  |  | 6.49 | 6.49 | 7.01 | antitumor effect (tumor growth inhibition) ([12]; 50 mg/kg, once a day, 13 days): 83.19%
11 | Cc1cc(C(=O)Nc2cc(Nc3ncccc3-c3ncnc4[nH]cnc34)ccc2F)cc(C(C)(C)C#N)c1 [Example 155, N-5-[(3-(9H-purin-6-yl)pyridin-2-yl)amino]-2-fluorophenyl-3-(2-cyanopropan-2-yl)-5-methylbenzamide] |  |  |  | 6.84 |  |  | 
12 | COc1cc(C(=O)Nc2cc(Nc3ncccc3-c3ncnc4[nH]cnc34)ccc2F)c(Br)c(C(C)(C)C#N)c1 [Example 156, N-5-[(3-(9H-purin-6-yl)pyridin-2-yl)amino]-2-fluorophenyl-2-bromo-3-(2-cyanopropan-2-yl)-5-methoxybenzamide] |  |  |  | 6.29 |  |  | 
13 | N#Cc1cc(C(=O)Nc2cc(Nc3ncccc3-c3ncnc4[nH]cnc34)ccc2F)cc(C(F)(F)F)c1 [Example 157, N-5-[(3-(9H-purin-6-yl)pyridin-2-yl)amino]-2-fluorophenyl-3-cyano-5-(trifluoromethyl)benzamide] |  |  |  | 6.33 |  |  | 
14 | O=C(Nc1cc(Nc2ncccc2-c2ncnc3[nH]cnc23)ccc1F)c1cc(Br)cc(C(F)(F)F)c1 [Example 158, N-5-[(3-(9H-purin-6-yl)pyridin-2-yl)amino]-2-fluorophenyl-3-bromo-5-(trifluoromethyl)benzamide] |  |  |  | 6.55 |  |  | 
